Test results taken from patent US20100286038A1, “FORMULATION CONTAINING CYCLIN-DEPENDENT KINASE INHIBITING COMPOUND AND METHOD OF TREATING TUMORS USING THE SAME” (priority 2007, published 2010).
Like-named read-outs stand apart in the source and are kept apart here.

Assays:
[1] = molecular target: T1, Rsk2 (Homo sapiens, UniProt P51812); experiment: Upstate kinase Profiler counter-screening; type: biochemical
T1 construct: purchased Upstate

[2] = molecular target: T2, PKCα (Homo sapiens, UniProt P17252); experiment: Upstate kinase Profiler counter-screening; type: biochemical
T2 construct: purchased Upstate

[3] = tested on: A549 NSCLC xenografts
[4] = molecular target: T3, PKCβII (Homo sapiens, UniProt P05771); experiment: Upstate kinase Profiler counter-screening; type: biochemical
T3 construct: purchased Upstate
T3 sequence (P05771 1-673 isoform P05771-2): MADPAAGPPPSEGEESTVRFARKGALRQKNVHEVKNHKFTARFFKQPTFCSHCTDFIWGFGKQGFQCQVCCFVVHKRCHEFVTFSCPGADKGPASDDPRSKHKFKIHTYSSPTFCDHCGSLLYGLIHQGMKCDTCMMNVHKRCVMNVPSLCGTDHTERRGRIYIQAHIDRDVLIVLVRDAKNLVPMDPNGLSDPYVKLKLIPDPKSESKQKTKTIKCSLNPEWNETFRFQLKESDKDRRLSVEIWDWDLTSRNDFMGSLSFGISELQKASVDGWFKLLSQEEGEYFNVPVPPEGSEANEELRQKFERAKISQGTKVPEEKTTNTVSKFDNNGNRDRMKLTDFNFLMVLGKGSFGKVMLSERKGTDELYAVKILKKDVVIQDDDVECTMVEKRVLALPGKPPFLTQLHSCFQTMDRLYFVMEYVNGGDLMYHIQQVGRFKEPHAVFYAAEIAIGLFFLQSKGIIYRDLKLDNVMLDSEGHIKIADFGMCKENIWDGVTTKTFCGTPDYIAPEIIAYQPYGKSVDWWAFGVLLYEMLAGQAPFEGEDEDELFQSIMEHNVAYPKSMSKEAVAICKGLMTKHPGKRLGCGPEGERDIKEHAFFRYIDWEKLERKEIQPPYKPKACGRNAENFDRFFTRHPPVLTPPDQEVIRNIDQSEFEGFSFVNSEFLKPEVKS

[5] = molecular target: T4, MSK1 (Homo sapiens, UniProt O75582); experiment: Upstate kinase Profiler counter-screening; type: biochemical
T4 construct: purchased Upstate
T4 sequence (O75582 whole entry, species assumed): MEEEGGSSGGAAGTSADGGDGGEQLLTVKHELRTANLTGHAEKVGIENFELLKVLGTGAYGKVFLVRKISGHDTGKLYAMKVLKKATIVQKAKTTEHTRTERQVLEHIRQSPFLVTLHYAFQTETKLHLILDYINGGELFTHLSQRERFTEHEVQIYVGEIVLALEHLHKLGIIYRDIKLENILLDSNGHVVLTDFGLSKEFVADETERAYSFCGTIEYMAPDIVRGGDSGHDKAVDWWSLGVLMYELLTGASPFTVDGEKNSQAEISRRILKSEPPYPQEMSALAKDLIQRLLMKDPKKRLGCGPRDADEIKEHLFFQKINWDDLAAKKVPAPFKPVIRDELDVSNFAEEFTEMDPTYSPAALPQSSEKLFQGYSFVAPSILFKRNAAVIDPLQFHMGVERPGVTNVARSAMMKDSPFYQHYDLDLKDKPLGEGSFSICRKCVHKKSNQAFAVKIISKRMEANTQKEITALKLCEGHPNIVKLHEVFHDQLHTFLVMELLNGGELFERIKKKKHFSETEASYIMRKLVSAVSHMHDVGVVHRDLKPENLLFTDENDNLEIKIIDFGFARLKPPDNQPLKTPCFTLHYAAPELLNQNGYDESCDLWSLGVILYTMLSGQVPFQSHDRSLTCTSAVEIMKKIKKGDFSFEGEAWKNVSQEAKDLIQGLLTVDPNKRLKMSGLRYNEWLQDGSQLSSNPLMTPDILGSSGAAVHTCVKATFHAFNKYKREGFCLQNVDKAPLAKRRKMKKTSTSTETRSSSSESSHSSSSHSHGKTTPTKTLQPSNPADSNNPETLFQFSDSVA

[6] = tested on: lymphocyte proliferation (BrdU incorporation)
Method: The samples were collected in tubes containing heparin and shipped to a central laboratory for evaluation. Whole blood from each sample was diluted 1:5 in complete RPMI media and 200 microliter aliquots were added to wells of a 96-well plate. Samples from each time point were either stimulated with PHA (0.01 mg/ml final concentration), or not stimulated. […] Samples were stained with FITC conjugated anti-CD45 antibody. RBC's were lysed and the remaining cells were fixed, permeabilized and treated with DNase. The samples were then incubated with an anti-BrdU antibody. Washed cells were re-suspended and the CD45 and BrdU-positive and −negative populations were detected by FACS. FIGS. 10, 12A, and 12B show the percent of BrdU incorporation for samples taken for various doses.

[7] = tested on: CaMKII; type: biochemical
[8] = tested on: various human tumor cell lines; details: read-out: Mean In-Cell IC50, 24 hours exposure
Method: (§1) The level of activation of apoptosis was also assessed by determining the levels of activated caspase in each cell line. […] The cells were evaluated fluorometrically for levels of activated caspase six hours post washout. Samples of each cell line were also subjected to SDS-PAGE and subsequently immunoblotted for p85 PARP caspase cleavage product.

[9] = tested on: tumor cell lines including the standard NCI panel; details: inhibition of CDK2/CDK1 in tumor cells
[10] = tested on: AMPK; experiment: Upstate kinase Profiler counter-screening; type: biochemical
[11] = molecular target: T5, PKCε (Homo sapiens, UniProt Q02156); experiment: Upstate kinase Profiler counter-screening; type: biochemical
T5 construct: purchased Upstate
T5 sequence (Q02156 1-737): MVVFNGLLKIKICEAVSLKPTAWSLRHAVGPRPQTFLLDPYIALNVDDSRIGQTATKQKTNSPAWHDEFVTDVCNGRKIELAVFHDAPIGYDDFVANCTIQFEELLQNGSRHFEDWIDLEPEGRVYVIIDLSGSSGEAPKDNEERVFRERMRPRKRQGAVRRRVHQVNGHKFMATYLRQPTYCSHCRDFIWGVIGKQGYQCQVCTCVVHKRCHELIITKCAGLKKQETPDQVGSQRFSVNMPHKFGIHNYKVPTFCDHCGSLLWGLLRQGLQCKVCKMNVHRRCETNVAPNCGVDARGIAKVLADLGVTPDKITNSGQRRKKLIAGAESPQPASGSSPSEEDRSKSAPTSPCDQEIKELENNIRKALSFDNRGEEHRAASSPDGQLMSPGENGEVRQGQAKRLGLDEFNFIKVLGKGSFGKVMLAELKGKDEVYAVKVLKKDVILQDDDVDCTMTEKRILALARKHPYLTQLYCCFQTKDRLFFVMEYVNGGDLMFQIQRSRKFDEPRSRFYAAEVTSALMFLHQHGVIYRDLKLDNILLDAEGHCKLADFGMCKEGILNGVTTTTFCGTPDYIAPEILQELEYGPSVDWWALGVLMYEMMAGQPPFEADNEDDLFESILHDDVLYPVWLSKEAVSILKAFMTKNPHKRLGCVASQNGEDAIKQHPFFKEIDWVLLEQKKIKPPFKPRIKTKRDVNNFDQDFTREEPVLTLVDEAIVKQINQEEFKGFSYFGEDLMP

[12] = tested on: H82 (SCLC); experiment: xenograft tumor model
[13] = tested on: A2780 cells; details: two hours exposure, 24 hours after exposure
Method: Cells were then fixed, stained with an FITC-conjugated, anti-BrdU monoclonal antibody and propidium iodide. The cells thus prepared were analyzed using 2-color flow cytometry with doublet-discrimination.

[14] = tested on: various human tumor cell lines; details: for Caspase Activation (number of sensitive cell lines out of total tested/single exposure): two hour exposure to less than 0.1 micromolar
Method: as §1

[15] = tested on: tumor; details: for Status: 4-week schedule
Text: Each 28-day dosing cycle comprising once weekly administration for three weeks with a week off.

[16] = tested on: xenograft models; details: plasma trough concentrations of less than 25 nM for less than two hours

T1 sequence (P51812 whole entry, species assumed): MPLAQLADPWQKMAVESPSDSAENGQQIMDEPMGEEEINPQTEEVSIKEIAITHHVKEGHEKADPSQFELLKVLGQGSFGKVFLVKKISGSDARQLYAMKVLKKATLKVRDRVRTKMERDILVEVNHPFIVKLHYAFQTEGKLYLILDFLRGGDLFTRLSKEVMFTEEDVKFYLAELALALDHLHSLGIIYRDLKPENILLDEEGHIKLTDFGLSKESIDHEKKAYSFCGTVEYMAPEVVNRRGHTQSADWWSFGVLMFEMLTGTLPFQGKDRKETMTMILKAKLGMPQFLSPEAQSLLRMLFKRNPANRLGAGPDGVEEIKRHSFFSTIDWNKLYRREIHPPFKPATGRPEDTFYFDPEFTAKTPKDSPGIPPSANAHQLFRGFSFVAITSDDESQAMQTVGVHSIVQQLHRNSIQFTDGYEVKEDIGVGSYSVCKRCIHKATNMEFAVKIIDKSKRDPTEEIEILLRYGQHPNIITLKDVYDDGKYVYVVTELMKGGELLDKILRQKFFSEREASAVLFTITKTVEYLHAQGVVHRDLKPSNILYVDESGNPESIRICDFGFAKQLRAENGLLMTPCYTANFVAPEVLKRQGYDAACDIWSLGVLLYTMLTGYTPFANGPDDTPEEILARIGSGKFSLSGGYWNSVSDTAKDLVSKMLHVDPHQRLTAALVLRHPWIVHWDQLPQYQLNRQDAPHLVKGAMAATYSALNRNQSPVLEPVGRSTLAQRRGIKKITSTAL

## CCc1cnn2c(NCc3ccc[n+]([O-])c3)cc(N3CCCC[C@H]3CCO)nc12 [Formula II]
[1]; at 1 μM
  % remaining activity: 104%
[1]; at 10 μM
  % remaining activity: 76%
[2]; at 1 μM
  % remaining activity: 96%
[2]; at 10 μM
  % remaining activity: 94%
[3]; 5 dosing schedules (20, 29, 52, 3x17, 87 mg/kg), total 260 mg/kg
  effect on tumor volume: regression in tumor volume and mass
[3]; first Formula II column
  % inhibition observed at dosage of 5 mg/kg Formula II: 73%
[3]; second Formula II column
  % inhibition observed at dosage of 5 mg/kg Formula II: 160 (regression) %
[4]; at 1 μM
  % remaining activity: 110%
[4]; at 10 μM
  % remaining activity: 113%
[5]; at 1 μM
  % remaining activity: 94%
[5]; at 10 μM
  % remaining activity: 97%
[6]; Patient A, 1.85 mg/M2, Pre-Dose 28
  % BrdU incorporated at 8 hrs post-infusion: 65%
[6]; Patient B, 3.7 mg/M2, Pre-Dose 10
  % BrdU incorporated at 8 hrs post-infusion: 13%
[6]; Patient C, 7.4 mg/M2, Pre-Dose 51
  % BrdU incorporated at 8 hrs post-infusion: 11%
[6]; Patient F, 50 mg/M2, Pre-Dose 33
  % BrdU incorporated at 8 hrs post-infusion: 1%
[6]; Patient G, 58 mg/M2, Pre-Dose 23
  % BrdU incorporated at 8 hrs post-infusion: 0.7%
[6]; Patient H, 41.4 mg/M2, Pre-Dose 41
  % BrdU incorporated at 8 hrs post-infusion: 45%
[7]; at 1 μM
  % remaining activity: 102%
[7]; at 10 μM
  % remaining activity: 91%
[8]; Bladder
  IC50: 10 nM
[8]; Breast
  IC50: 8 nM
[8]; Colon
  IC50: 17 nM
[8]; Leukemia
  IC50: 6 nM
[8]; Liver
  IC50: 8 nM
[8]; Lymphoma (NHL)
  IC50: 7 nM
[8]; Mantle Cell lymphoma
  IC50: 7 nM
[8]; Melanoma
  IC50: 9 nM
[8]; NSCLC
  IC50: 14 nM
[8]; Ovarian
  IC50: 14 nM
[8]; Pancreatic
  IC50: 15 nM
[8]; Prostate
  IC50: 12 nM
[8]; SCLC
  IC50: 6 nM
[9]
  number of tumor cell lines with cell cycle arrest and apoptosis: more than 100 tumor cell lines
[10]; at 1 μM
  % remaining activity: 94%
[10]; at 10 μM
  % remaining activity: 82%
[11]; at 1 μM
  % remaining activity: 93%
[11]; at 10 μM
  % remaining activity: 88%
[12]; first Formula II column
  % inhibition observed at dosage of 5 mg/kg Formula II: 56%
[12]; second Formula II column
  % inhibition observed at dosage of 5 mg/kg Formula II: 65%
[13]
  exposure completely suppressing DNA synthesis: greater than 0.5 micromolar
  exposure showing accumulation of subG1 (apoptotic cells): greater than 0.5 micromolar
[14]; Bladder
  Caspase Activation (number of sensitive cell lines out of total tested/single exposure): 1 of 2
[14]; Breast
  Caspase Activation (number of sensitive cell lines out of total tested/single exposure): 6 of 7
[14]; Colon
  Caspase Activation (number of sensitive cell lines out of total tested/single exposure): 5 of 9
[14]; Leukemia
  Caspase Activation (number of sensitive cell lines out of total tested/single exposure): 5 of 6
[14]; Liver
  Caspase Activation (number of sensitive cell lines out of total tested/single exposure): 2 of 2
[14]; Lymphoma (NHL)
  Caspase Activation (number of sensitive cell lines out of total tested/single exposure): 8 of 8
[14]; Mantle Cell lymphoma
  Caspase Activation (number of sensitive cell lines out of total tested/single exposure): 3 of 4
[14]; Melanoma
  Caspase Activation (number of sensitive cell lines out of total tested/single exposure): 9 of 9
[14]; NSCLC
  Caspase Activation (number of sensitive cell lines out of total tested/single exposure): 8 of 9
[14]; Ovarian
  Caspase Activation (number of sensitive cell lines out of total tested/single exposure): 5 of 7
[14]; Pancreatic
  Caspase Activation (number of sensitive cell lines out of total tested/single exposure): 11 of 15
[14]; Prostate
  Caspase Activation (number of sensitive cell lines out of total tested/single exposure): 4 of 5
[14]; SCLC
  Caspase Activation (number of sensitive cell lines out of total tested/single exposure): 2 of 6
[14]; single exposure
  share of cell lines tested with caspase activation and apoptosis detected: over 85%
[15]; adenoidcystic carcinoma patient, 7.11 mg/m^2, 5 cycles
  Status: disease progression
[15]; melanoma patient, 3.63 mg/m^2, 9 cycles
  Status: disease progression
[15]; prostate patient, 3.63 mg/m^2, 4 cycles
  Status: disease progression
[15]; pseudomyxoma patient, 2.59 mg/m^2, 9 cycles
  Status: off study with stable disease
[15]; pseudomyxoma peritonei patient, after 6 cycles of 28 day treatment at 2.59 mg/m^2
  tumor markers (FIG. 11, incl. CA125): falling tumor markers
[15]; various dosages, 2 hour IV infusion, 28-day dosing cycle
  responses by RECIST criteria in the population: No complete or partial responses
[16]
  effect on xenograft tumors: tumor growth inhibition or regression
